Where two headings read alike, the source gives them in different places.
Tests used:
[1] = tested on: dietetic-medicamentous hyperlipemia of male rats; experiment: Action on the dietetic-medicamentous hyperlipemia of male rats; format: in vivo; details: Rattus norvegicus, po, 192 h, 100 mg/kg/day p.o., 8 days, male rats on cholesterol diet
From the text: All the animals were fed with a diet food containing 2% of cholesterol, 2% of sodium cholate, 0.3% of methyl-thiouracil, 20% of coco fat and 44% of cane sugar. The serum lipid concentration of the animals treated with the compounds of the invention was compared to that of an untreated control group on the same diet, which diet causes the serum cholesteral concentration to rise within 1 week to about 10 times the initial value, that of the serum triglycerides to 3 times and that of the phospho-lipids in the serum to 4 times the initial value. The lipid phosphorus was determined according to the method of Messrs. Boehringer Mannheim W. Germany. At the same time as the diet was offered, the compounds of the invention were administered once a day to groups of rats, each containing 10 animals, over a period of 8 days by means of an esophageal sound. The change in percentage in the serum lipid concentration as compared to the control group (diet without active substance) is indicated in Table 2.

[2] = tested on: normolipemic rats; experiment: Reduction of serum lipid values in normolipemic rats (8 days oral); format: in vivo, rat; details: 8 doses, male rats; for serum cholesterol, change in percentage (A: referred to the initial value) / serum triglyceride, change in percentage (A: referred to the initial value): column A; for serum cholesterol, change in percentage (B: referred to the untreated control group) / serum triglyceride, change in percentage (B: referred to the untreated control group): column B
Procedure: 1. Male rats having a normal serum lipid content were treated for eight days with different daily doses mentioned in Table 1. The values given in that Table stand for a change in the serum concentrations of certain lipid classes. The doses administered per os by means of an esophageal sound were 100, 30 and 10 mg/kg/day. Generally, prior to and after the treatment, blood samples were taken and the concentration of cholesterol in the serum was determined according to the method of Lauber and Richterich and that of triglycerides according to the method of Eggstein and Kreutz. In the examples of the following Table 1, the changes in the serum lipid values due to the treatment with the substances of the invention are defined as follows:
a. The changes in percent in the final value of the treated group, referred to the initial value of the treated group, the initial value being 100 percent, and
b. the change in the final value of the treated group, referred to the final value of an accompanying untreated control group, the untreated control group's value being defined as 100 percent. Thus, the value given in columns A is the change in percentage referred to the initial value, whereas the value given in columns B is the change in percentage of the treated group, referred to the untreated control group.

[3] = tested on: hypertriglyceridemia induced by carbohydrates in male rats; experiment: Action on the hypertriglyceridemia induced by carbohydrates (fructose) in male rats; format: in vivo; details: Rattus norvegicus, 72 h, 3-day oral pre-treatment, vs untreated control, read-out: Change in percentage of hypertriglyceridemia induced by carbohydrates
[4] = tested on: rats that had been fed fructose doses; experiment: Hypoglycemic activity: lowering of the blood sugar level in rats fed fructose doses; format: in vivo, rat; details: 100 mg/kg once a day over 3 days, 24 hours after last administration, vs placebo control group
Procedure: The hypoglycemic activity of some bis(4-hydroxy-phenyl) alkanoic acid derivatives of formulae I and II could be established by administering once a day, over 3 days, 100 mg of the active compound per kg of test animal to rats that had been fed fructose doses and by taking blood samples 24 hours after the last administration in order to determine the blood sugar level by means of an autoanalyzer.
The lowering of the blood sugar content indicated in following Table 4 refers to a control group treated with placebos (blank doses).

[5] = tested on: mice; details: Table 3
[6] = in vivo; details: mouse, po
[7] = read-out: serum cholesterol, change in percentage as compared to the control group
[8] = read-out: serum lipid phosphorus, change in percentage as compared to the control group
[9] = read-out: serum triglyceride, change in percentage as compared to the control group

Row | Structure (SMILES) | change in vivo at 100 mg/kg [1, 7] [%] | change in vivo at 100 mg/kg [1, 8] [%] | change in vivo at 100 mg/kg [1, 9] [%] | serum cholesterol, change in percentage (A: referred to the initial value) ([2]; 100 mg/kg/day p.o.) [%] | serum triglyceride, change in percentage (A: referred to the initial value) ([2]; 100 mg/kg/day p.o.) [%] | serum cholesterol, change in percentage (B: referred to the untreated control group) ([2]; 100 mg/kg/day p.o.) [%] | serum triglyceride, change in percentage (B: referred to the untreated control group) ([2]; 100 mg/kg/day p.o.) [%] | change in vivo at 30 mg/kg [3] [%] | change in vivo at 100 mg/kg [3] [%] | LD50 [6] [mg/kg] | other results
1 | CC(C)(C)c1cc(C(C(=O)O)c2ccc(O)c(C(C)(C)C)c2)ccc1O [Example 4, Bis(4'-hydroxy-3'-tert.-butyl-phenyl)ethanoic acid] | -29 | -25 | -21 | – | – | – | – | – | – | – | –
2 | CCCCOC(=O)CC(C)(c1ccc(O)c(C(C)(C)C)c1)c1ccc(O)c(C(C)(C)C)c1 [Example 7, 3,3-bis(4'-hydroxy-3'-tert.-butyl-phenyl)butanoic acid butyl ester] | -30 | -30 | -34 | -29 | -53 | -26 | -23 | -19 | -35 | > 8000 | lowering of the blood sugar level in per cent [4]: -24 per cent; LD50 mice p.o. [5]: > 8000 mg/kg
3 | CCCCOC(=O)C(c1ccc(O)c(C(C)(C)C)c1)c1ccc(O)c(C(C)(C)C)c1 [Example 5, Bis(4'-hydroxy-3'-tert.-butyl-phenyl)ethanoic acid n-butyl ester] | – | – | – | – | – | – | – | – | – | – | lowering of the blood sugar level in per cent [4]: -30 per cent
4 | CC(C)(C)c1cc(C(C)(CC(=O)OCCCCCCOC(=O)CC(C)(c2ccc(O)c(C(C)(C)C)c2)c2ccc(O)c(C(C)(C)C)c2)c2ccc(O)c(C(C)(C)C)c2)ccc1O [Example 17, Bis [3,3-bis(4'-hydroxy-3'-tert.-butyl-phenyl)butanoic acid]hexane-diol-1,6ester] | – | – | – | – | – | – | – | – | -10 | > 8000 | lowering of the blood sugar level in per cent [4]: -18 per cent
5 | Cc1cc(C(C)(CC(=O)O)c2ccc(O)c(C)c2)ccc1O [Example 1, 3,3-Bis(4'-hydroxy-3'-methyl-phenyl)butanoic acid] | -11 | -15 | -18 | – | – | – | – | – | – | – | –
6 | CC(C)(C)c1cc(C(C)(CCC(=O)O)c2ccc(O)c(C(C)(C)C)c2)ccc1O [Example 14, 4,4-Bis(4'-hydroxy-3'-tert.-butyl-phenyl)pentanoic acid] | -36 | -25 | -13 | – | – | – | – | – | – | 4000 | –
7 | CCCCOC(=O)CC(C)(c1ccc(O)c(C)c1)c1ccc(O)c(C)c1 [Example 8, 3,3-bis(4'-hydroxy-3'-methyl-phenyl)butanoic acid n-butyl ester] | -36 | -37 | -39 | -43 | -23 | -26 | – | – | – | > 8000 | serum cholesterol, change in percentage (B: referred to the untreated control group) ([2]; 10 mg/kg/day p.o.): -13%; serum triglyceride, change in percentage (B: referred to the untreated control group) ([2]; 10 mg/kg/day p.o.): -25%; serum cholesterol, change in percentage (A: referred to the initial value) ([2]; 30 mg/kg/day p.o.): -14%; serum cholesterol, change in percentage (B: referred to the untreated control group) ([2]; 30 mg/kg/day p.o.): -16%; serum triglyceride, change in percentage (B: referred to the untreated control group) ([2]; 30 mg/kg/day p.o.): -22%; LD50 mice p.o. [5]: > 8000 mg/kg
8 | CCCCNC(=O)CC(C)(c1ccc(O)c(C(C)(C)C)c1)c1ccc(O)c(C(C)(C)C)c1 [Example 13, 3,3-Bis(4'-hydroxy-3'-tert.-butyl-phenyl)butanoic acid n-butylamide] | – | – | – | – | – | – | – | -17 | – | 8000 | –
9 | CC(C)(C)c1cc(C(C)(CCC(=O)OCCOC(=O)CCC(C)(c2ccc(O)c(C(C)(C)C)c2)c2ccc(O)c(C(C)(C)C)c2)c2ccc(O)c(C(C)(C)C)c2)ccc1O [Example 18, Bis [4,4-bis(4'hydroxy-3'-tert.-butyl-phenyl)pentanoic acid] glycol ester] | -36 | -37 | -19 | -48 | -51 | -33 | -17 | -34 | -46 | 4340 | –
10 | CCOC(=O)C(C)(C)Oc1ccc(Cl)cc1 [Clofibrat, reference compound] | 0 | -12 | -27 | -22 | -48 | -15 | -37 | – | -15 | – | LD50 ([6]; LD50 mice p.o., mice, Table 3): 2000 to 2500 mg/kg; LD50 ([6]; p.o. LD50 mice, mice, Table 2): 2000 to 25000 mg/kg
11 | CC(C)(C)c1cc(C(C)(CC(=O)O)c2ccc(O)c(C(C)(C)C)c2)ccc1O [Example 2, 3,3-Bis(4'-hydroxy-3'-tert.-butyl-phenyl)butanoic acid] | -19 | -9 | -13 | – | – | – | – | -63 | – | 2000 | –
12 | CC(C)(C)c1cc(C(C)(CC(=O)OCCOC(=O)CC(C)(c2ccc(O)c(C(C)(C)C)c2)c2ccc(O)c(C(C)(C)C)c2)c2ccc(O)c(C(C)(C)C)c2)ccc1O [Example 16, Bis [3,3-bis(4'-hydroxy-3'-tert.-butyl-phenyl)butanoic acid] glycol ester] | – | – | – | -20 | -27 | -21 | -26 | -24 | – | – | serum cholesterol, change in percentage (A: referred to the initial value) ([2]; 30 mg/kg/day p.o.): -10%; serum cholesterol, change in percentage (B: referred to the untreated control group) ([2]; 30 mg/kg/day p.o.): -15%; serum triglyceride, change in percentage (B: referred to the untreated control group) ([2]; 30 mg/kg/day p.o.): -32%
13 | CC(CCC(=O)O)(c1ccc(O)cc1)c1ccc(O)cc1 [Example 19, 4,4-Bis(4'-hydroxy-phenyl)pentanoic acid] | -17 | -17 | -28 | – | – | – | – | – | -27 | – | lowering of the blood sugar level in per cent [4]: -20 per cent
14 | CCCCOC(=O)CCC(C)(c1ccc(O)c(C(C)(C)C)c1)c1ccc(O)c(C(C)(C)C)c1 [Example 15, 4,4-Bis(4'-hydroxy-3'-tert.-butyl-phenyl)pentanoic acid n-butyl ester] | -57 | -53 | -34 | -37 | -36 | -20 | -13 | – | -28 | > 8000 | serum triglyceride, change in percentage (A: referred to the initial value) ([2]; 10 mg/kg/day p.o.): -20%; serum triglyceride, change in percentage (B: referred to the untreated control group) ([2]; 10 mg/kg/day p.o.): -34%; serum cholesterol, change in percentage (A: referred to the initial value) ([2]; 30 mg/kg/day p.o.): -13%; serum triglyceride, change in percentage (A: referred to the initial value) ([2]; 30 mg/kg/day p.o.): -32%; serum cholesterol, change in percentage (B: referred to the untreated control group) ([2]; 30 mg/kg/day p.o.): -10%; serum triglyceride, change in percentage (B: referred to the untreated control group) ([2]; 30 mg/kg/day p.o.): -37%; LD50 mice p.o. [5]: > 8000 mg/kg
15 | CC(C)(C)c1cc(C(C)(CC(=O)OCCOC(=O)CC(C)(c2cc(Br)c(O)c(C(C)(C)C)c2)c2cc(Br)c(O)c(C(C)(C)C)c2)c2cc(Br)c(O)c(C(C)(C)C)c2)cc(Br)c1O [Example 21, Bis [3,3-bis(4'-hydroxy-3'-tert.-butyl-5'-bromophenyl)butanoic acid] glycol ester] | – | – | – | – | – | – | – | – | – | 4090 | –
